Several values for one entry are separate records, joined by “and”; a condition that tells them apart may be missing. Identical values can stand only once. Like-named read-outs stand apart in the source and are kept apart here.
Tests used:
HeLa cells = assay: Cell Titer Glo cytotoxicity / cell viability assay in HeLa cells (CC50); type: cell-based, human; conditions: any concentration tested
Source text: A dose-response analysis may be performed using the ELISA assay and conditions described above. The conditions for the dose-response ELISA are analogous to those described above. A series of, e.g., seven different concentrations may be analyzed. In parallel, a dose-response cytotoxicity assay may be performed using Cell Titer Glo (Promega) under the same conditions as the ELISA to ensure that the inhibition of VEGF expression was not due to the cytotoxicity.
Experimental Design. HeLa (human cervical carcinoma) cell cultures were established under normoxic conditions (21% oxygen). HeLa cells increase VEGF production 4- to 5-fold in response to hypoxia. […] At the completion of treatment, the conditioned media were collected and the VEGF protein levels were assayed in an enzyme-linked immunosorbent assay (ELISA) with primary antibodies that recognize the soluble VEGF121 and VEGF165 isoforms (R & D Systems, Minneapolis, Minn., USA). To ensure that decreases in VEGF concentration were not due to cytotoxicity, cultures were assayed using a standard assay ([…]-GLO® Luminescent Cell Viability Assay; Promega, Madison, Wis., USA) that measures total cellular adenosine triphosphate (ATP) concentrations as an indicator of cell viability.

[1] = test system: normal human keratinocyte; assay: ATP viability assay in keratinocytes; type: cell-based; conditions: any concentration tested
Protocol: Experimental Design. Nontransformed normal human keratinocyte cell cultures were established under normoxic conditions (21% oxygen). […] At the completion of treatment, cells were assessed for viability with an ATP assay and conditioned media were evaluated for VEGF protein levels by ELISA (as described in Section 9.1.1.1).

HT1080 xenografts = assay: HT1080 xenograft selectivity studies: tumor size; type: in vivo, athymic nude mice
Protocol: In all of these experiments, HT1080 cells (5×10^6 cells/mouse) were implanted subcutaneously in male athymic nude mice. When tumors had become established, mice were divided into groups (10 mice/group). […] Tumor size was measured by calipers at the beginning and end of treatment. At the completion of Compound administration, the mice were sacrificed, and excised tumors were assayed by ELISA for intratumoral VEGF or other angiogenic factors using methods analogous to those described in Section 9.1.1.1.

[2] = Trough plasma concentrations of Compound #10 in HT1080 xenograft mice (HPLC-MS/MS); type: in vivo; conditions: athymic nude, mouse, oral, 1 mg/kg BID
[3] = 14C-Compound #10 tissue distribution by quantitative whole-body autoradiography (Tables 23, 33); type: in vivo; conditions: rats, single oral 50 mg/kg
Protocol: For the QWBA, the carcasses were prepared by immediately freezing them, embedding them in chilled carboxymethylcellulose, and freezing them into blocks. Appropriate cryomicrotome sections of the blocks at 40 μm thickness were collected on adhesive tape. Mounted sections were tightly wrapped and exposed on phosphorimaging screens along with plastic embedded autoradiographic standards. Exposed screens were scanned and the autoradiographic standard image data were sampled to create a calibrated standard curve. Specified tissues, organs, and fluids were analyzed.

[4] = test system: soluble VEGF121 and VEGF165 isoforms; assay: VEGF inhibition EC50 by ELISA in the same human tumor cell lines (Table 25); type: cell-based
Protocol: Results. […] The conditioned media were collected and assayed by ELISA for soluble VEGF121 and VEGF165 isoforms (as described in Section 9.1.1.1); results were calculated as percentage inhibition relative to vehicle treated controls. EC50 values were calculated from the concentration response curves.

[5] = molecular target: human-ether-a-go-go-related gene (hERG) current (Homo sapiens, UniProt Q12809); assay: Higher throughput hERG assay; type: cell-based
human-ether-a-go-go-related gene (hERG) current, sequence (Q12809 whole entry): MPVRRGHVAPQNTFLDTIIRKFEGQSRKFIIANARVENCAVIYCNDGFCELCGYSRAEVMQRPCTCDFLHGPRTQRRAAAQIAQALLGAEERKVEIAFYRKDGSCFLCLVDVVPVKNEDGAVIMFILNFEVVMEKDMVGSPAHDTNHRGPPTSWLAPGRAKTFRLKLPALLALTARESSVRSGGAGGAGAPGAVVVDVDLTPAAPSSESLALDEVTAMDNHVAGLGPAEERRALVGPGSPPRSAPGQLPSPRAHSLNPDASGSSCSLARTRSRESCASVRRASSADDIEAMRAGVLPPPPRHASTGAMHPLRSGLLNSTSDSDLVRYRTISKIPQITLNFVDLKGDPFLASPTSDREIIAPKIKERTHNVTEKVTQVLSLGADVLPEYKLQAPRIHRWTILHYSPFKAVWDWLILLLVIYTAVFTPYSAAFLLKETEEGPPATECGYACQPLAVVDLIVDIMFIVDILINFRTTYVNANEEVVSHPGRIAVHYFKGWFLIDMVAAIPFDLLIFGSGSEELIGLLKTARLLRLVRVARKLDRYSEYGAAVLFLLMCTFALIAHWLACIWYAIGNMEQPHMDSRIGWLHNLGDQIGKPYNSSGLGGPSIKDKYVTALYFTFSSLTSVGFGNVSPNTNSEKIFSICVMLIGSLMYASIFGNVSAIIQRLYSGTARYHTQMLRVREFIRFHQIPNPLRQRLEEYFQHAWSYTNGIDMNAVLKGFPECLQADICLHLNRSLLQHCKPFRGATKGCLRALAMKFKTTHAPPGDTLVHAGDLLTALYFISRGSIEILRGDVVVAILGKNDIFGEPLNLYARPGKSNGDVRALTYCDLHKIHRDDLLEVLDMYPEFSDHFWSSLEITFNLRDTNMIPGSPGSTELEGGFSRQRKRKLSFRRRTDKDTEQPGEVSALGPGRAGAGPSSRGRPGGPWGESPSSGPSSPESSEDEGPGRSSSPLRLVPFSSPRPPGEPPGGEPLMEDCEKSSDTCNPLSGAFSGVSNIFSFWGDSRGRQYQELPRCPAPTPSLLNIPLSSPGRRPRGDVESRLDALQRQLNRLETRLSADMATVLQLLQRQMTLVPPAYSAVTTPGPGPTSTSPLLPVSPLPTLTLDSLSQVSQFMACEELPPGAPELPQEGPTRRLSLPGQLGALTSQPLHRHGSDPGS

[6] = Oral pharmacokinetics in mice; type: in vivo
Protocol: The pharmacokinetic evaluations in mice were adjuncts to the primary pharmacodynamic xenograft studies. The evaluations in rats included toxicokinetic assessments in single-dose, 7-day, and 28-day toxicology studies as well as a mass-balance study after a single oral dose of ^14C-Compound #10. The evaluations in dogs included toxicokinetic assessments in 7-day and 28-day toxicology studies. In the studies performed, rodents were dosed once daily with Compound #10 formulated in vehicle and administered via oral gavage.

[7] = In vitro plasma protein binding of 14C-radiolabeled Compound #10; type: in vitro ADME, mice, rats, dogs, monkeys, and humans; conditions: mouse, rat, dog, monkey, human, all species, 0.05 to 50 μg/mL, read-out: Plasma protein binding, overall mean
CYP3A4 = molecular target: T1, CYP3A4 (Homo sapiens, UniProt P08684); assay: CYP inhibition: CYP3A4; type: in vitro ADME; conditions: human hepatic microsomes or recombinant isoenzymes
T1 construct: host or cells: human hepatic microsomes or recombinant isoenzyme (not distinguished)
T1 sequence (P08684 whole entry): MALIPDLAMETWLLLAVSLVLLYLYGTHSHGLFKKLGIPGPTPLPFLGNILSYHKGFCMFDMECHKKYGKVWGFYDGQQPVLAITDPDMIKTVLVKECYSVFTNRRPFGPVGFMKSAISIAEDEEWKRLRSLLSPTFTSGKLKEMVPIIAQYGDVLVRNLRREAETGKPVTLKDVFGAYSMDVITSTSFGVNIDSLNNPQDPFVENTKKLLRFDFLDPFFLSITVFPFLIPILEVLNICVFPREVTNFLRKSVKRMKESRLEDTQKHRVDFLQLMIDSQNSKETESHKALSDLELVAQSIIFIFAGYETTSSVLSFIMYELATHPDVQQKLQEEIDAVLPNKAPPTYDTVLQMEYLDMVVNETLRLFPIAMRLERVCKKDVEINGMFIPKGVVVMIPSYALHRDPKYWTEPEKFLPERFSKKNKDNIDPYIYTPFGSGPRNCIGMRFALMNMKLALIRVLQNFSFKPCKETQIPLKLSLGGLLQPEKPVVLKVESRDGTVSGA
Source text: It is possible that in certain clinical trial subjects, such agents may need to be adjusted for dosing or replaced by alternative agents that are not metabolized by CYP2D6, particularly when such agents may have a low therapeutic index.

[8] = test system: Chinese hamster ovary (CHO) cells; assay: Chromosome aberration study in CHO cells; type: cell-based; conditions: with and without metabolic activation
Protocol: Genotoxicity was assessed in a battery of in vitro and in vivo studies that included a bacterial reverse mutation study, a chromosome aberration study in Chinese hamster ovary (CHO) cells, and a micronucleus study in rats by the oral route. The in vitro studies were performed in the presence and absence of an exogenous metabolic activation system.

tumor perfusion = assay: Patients: tumor perfusion by DCE-MRI; type: in vivo, human
Source text: Tumor perfusion using DCE-MRI: Assessing tumor blood flow offers an additional parameter of a Compound's action that can confirm the downstream consequences of decreasing tumor VEGF. Measurement of blood flow in target lesions provides direct evidence of a Compound's action on tumors that can be correlated with plasma VEGF changes. Assessment of tumor perfusion using DCE-MRI may be used to evaluate the efficacy of a Compound using standard protocols (see., e.g., Morgan et al., J. Clin. Oncol., Nov. 1, 2003, 21(21):3955-64; Leach et al., Br. J. Cancer, May 9, 2005, 92(9):1599-610; Liu et al., J. Clin. Oncol., August 2005, 23(24): 5464-73; and Thomas et al., J. Clin. Oncol., Jun. 20, 2005, 23(18):4162-71).
Tumor Perfusion with DCE-MRI. Subjects may undergo DCE-MRI for the target lesion of interest during the screening period and between 1 to 8 hours after the AM dose at various times throughout the treatment protocol.

For `COc1ccc(C2c3[nH]c4ccc(Cl)cc4c3CCN2C(=O)Oc2ccc(Cl)cc2)cc1` (racemic) [Compound #10], the “Cytotoxicity (cellular ATP)” value (HeLa cells) was “No cytotoxicity was observed”, the “Toxicity (ATP viability)” value [1] was “No toxicity was observed” and the “Final mean Compound #10-treated tumor size” value (HT1080 xenografts; Study 1: 1 mg/kg oral BID, 28 days) was 450 mm^3. For the same molecule, the “Final mean Compound #10-treated tumor size” value (HT1080 xenografts; Study 2: 5 mg/kg oral BID, 7 days) was 595 mm^3, the “Final mean Compound #10-treated tumor size” value (HT1080 xenografts; Study 3: 5 mg/kg oral BID, 10 days) was 735 mm^3 and the “Final mean Compound #10-treated tumor size” value (HT1080 xenografts; Study 4: 5 mg/kg oral BID, 9 days) was 953 mm^3. The “Final mean Compound #10-treated tumor size” value (HT1080 xenografts; Study 5: 5/50 mg/kg oral BID, 15 days) was 1922 mm^3, the “Final mean Compound #10-treated tumor size” value (HT1080 xenografts; Study 6: 5 mg/kg oral QD, 21 days) was 750 mm^3 and the “Final mean Compound #10-treated tumor size” value (HT1080 xenografts; Study 7: 10 mg/kg oral QD, 42 days) was 1770 mm^3. For the same molecule, the concentration at 16 h ([2]; 16 hours after the first day of dosing (n=3), read-out: Mean trough plasma concentration) was 130 ng/mL and 280 nM, the concentration at 16 h ([2]; 16 hours after the last dose on Day 18 (n=4), read-out: Steady state mean trough plasma concentration) was 0.82 µg/mL and the “Tmax of radioactivity in blood and plasma” value ([3]; both sexes) was 4 hours postdose. For the same molecule, the Blood-brain barrier penetration [3] was “penetrates the blood-brain barrier”, the “Overt signs of toxicity” value [3] was “no overt signs of toxicity” and the EC50 ([4]; Homo sapiens, ASPC1, ASPC-1 (Pancreas), 48 hours) was over 30 µM. It also gave an EC50 ([4]; Homo sapiens, HCT-116, HCT116 (Colorectal), 48 hours) of 0.01 µM, an EC50 ([4]; Homo sapiens, HT-1080, HT1080 (Fibrosarcoma), 48 hours) of 0.01 µM and an EC50 ([4]; Homo sapiens, PL45, PL-45, 48 hours) of over 30 µM. It also gave an EC50 ([4]; Homo sapiens, HEK293 (Renal cell), 48 hours) of 0.01 µM, an EC50 ([4]; Homo sapiens, HPAF-2, 48 hours) of over 30 µM and an EC50 ([4]; Homo sapiens, HeLa (Cervical), 48 hours) of 0.002 µM. For the same molecule, the EC50 ([4]; Homo sapiens, NCI H460 (Lung), 48 hours) was 0.01 µM, the EC50 ([4]; Homo sapiens, U-87MG (Glioblastoma), 48 hours) was over 30 µM and the EC50 ([4]; PC-3, 48 hours) was over 30 µM. For the same molecule, the “Inhibition of hERG current” value [5] was “negative for meaningful inhibition”, the Oral bioavailability [6] was “orally bioavailable” and the concentration at 24 h ([6]; mouse, plasma, oral, 1-mg/kg dose level, Day 1, read-out: Plasma trough concentration at 24 hours) was 0.1 to 0.15 µg/mL. For the same molecule, the fraction unbound [7] was at most 0.005, the “Inhibition of CYP3A4” value (CYP3A4) was “No meaningful inhibition” and the “Genotoxic effects, chromosome aberration in CHO cells” value [8] was “no evidence of genotoxic effects”. The “Tumor perfusion in patients by DCE-MRI (FIG. 36)” value (tumor perfusion) was “reduced”.

Source: patent publication US20120157401A1, “METHODS FOR TREATING NEUROFIBROMATOSIS” (PTC Therapeutics, Inc., priority 2009, published 2012)
